Patent publication US11944614B2, “Imidazo[4,5-c]pyridine compounds as LSD-1 inhibitors” (THE REGENTS OF THE UNIVERSITY OF MICHIGAN, priority 2018, dated 2024)

molecular target: Human recombinant LSD1 protein (Homo sapiens (Human), UniProt O60341); assay: LSD1 enzymatic activity, AlphaLISA demethylation assay; assay type: biochemical; details: 4 nM LSD1, 80 nM Biotin-H3K4Me peptide substrate, 1% DMSO, 60 minutes reaction
Description: Human recombinant LSD1 protein expressed in E. coli cells was purchased from Active Motif (Carlsbad, Calif.). Biotin-labeled Histone H3K4Me peptide (residues 1-21 with Lys 4 monomethylated) substrate was purchased from Anaspec (Fremont, Calif.). Enzymatic activity was assessed using the AlphaLISA technology from Perkin Elmer Life Sciences (Waltham, Mass.). 2.5 μL of compound solution and 5 μL of LSD1 solutions in the assay buffer (50 mM Tris, pH 9.0, 50 mM NaCl with 0.01% Tween20 and 1 mM DTT added right before the assay) were added into a white low volume 384 well microtiter plate. This mixture solution was incubated for 15 minutes with gentle shaking at room temperature. Demethylation reaction was initiated by adding 2.5 μL of Biotin-H3K4Me peptide substrate solution in the assay buffer. Final concentrations of LSD1, Biotin-H3K4Me peptide substrate, and DMSO were 4 nM, 80 nM, and 1%, respectively. The reaction was allowed to proceed for 60 minutes in dark with gentle shaking at room temperature, after which 5 μL of Anti-H3K4 AlphaLISA acceptor beads in detection buffer from the manufacturer was added into the reaction mixture followed by incubation for 60 minutes. 10 μL of Streptavidin labeled AlphaLISA donor beads in detection buffer was added into the mixture followed by 30-minute incubation. Final acceptor and donor beads concentrations were both at 10 μg/mL. Plates were read on a BMG CLARIOStar multimode plate reader from BMG Labtech (Ortenberg, Germany) with an excitation wavelength of 680 nm and emission wavelength of 615 nm. IC50 values of inhibitors were obtained by fitting the fluorescence intensity vs inhibitor concentrations in a sigmoidal dose-response curve (variable slope) with a non-linear regression using Prism 7 (La Jolla, Calif.).

SMILES	IC50 [nM]
Cn1ncc2cc(-c3ncc4c(ncn4CC4CCNCC4)c3-c3ccc(C#N)c(F)c3)ccc21 [Cpd. No. 19, 2-fluoro-4-(6-(1-methyl-1H-indazol-5-yl)-3-(piperidin-4-ylmethyl)-3H-imidazo[4,5-c]pyridin-7-yl)benzonitrile]	11.8
CN1CCOc2cc(-c3ncc4c(ncn4CC4CCNCC4)c3-c3ccc(C#N)c(F)c3)ccc21 [compound 25, 2-fluoro-4-(6-(4-methyl-3,4-dihydro-2H-benzo[b][1,4]oxazin-7-yl)-3-(piperidin-4-ylmethyl)-3H-imidazo[4,5-c]pyridin-7-yl)benzonitrile]	8.01
CN1CCC(Cn2cnc3c(-c4ccc(C#N)c(F)c4)c(-c4ccc5c(ccn5C)c4)ncc32)CC1 [compound 2, 2-fluoro-4-(6-(1-methyl-1H-indol-5-yl)-3-((1-methylpiperidin-4-yl)methyl)-3H-imidazo[4,5-c]pyridin-7-yl)benzonitrile]	237
N#Cc1ccc(-c2c(-c3ccc4c(c3)OCCO4)ncc3c2ncn3C[C@H]2CCNC2)cc1F [compound 28, (S)-4-(6-(2,3-dihydrobenzo[b][1,4]dioxin-6-yl)-3-(pyrrolidin-3-ylmethyl)-3H-imidazo[4,5-c]pyridin-7-yl)-2-fluorobenzonitrile]	9.57
CCn1ncc2cc(-c3ncc4c(ncn4CC4CCN(C)CC4)c3-c3ccc(C#N)c(F)c3)ccc21 [compound 4, 4-(6-(1-ethyl-1H-indazol-5-yl)-3-((1-methylpiperidin-4-yl)methyl)-3H-imidazo[4,5-c]pyridin-7-yl)-2-fluorobenzonitrile]	372
